Reference: patent US10251894B2, “Anticonvulsant activity of steroids” (The Regents of the University of California, priority 2012, dated 2019)

Tests used:
[1] = tested on: 6 Hz electrical stimulus seizures; assay: 6-Hz seizure test (6-Hz electrical-stimulation, 32 mA, 3 s, model); assay type: in vivo, mouse; conditions: mice
Experimental: (§1) The mouse 6 Hz and pentylenetetrazol seizure models were used. Solutions of 5α,3α-P were made in 6% (0.5 and 1.5 mg/ml) sulfobutylether-β-cyclodextrin sodium salt (Captisol®) in 0.9% saline. The solutions were injected i.v. or i.m. (1, 2 and 30 min or 2 and 30 min, respectively) prior to administration of the 6 Hz electrical stimulus or PTZ (80 mg/kg, i.p.). […] Anticonvulsant activity was assessed by the delay in onset of seizure signs. Allopregnanolone plasma levels in rats were determined by LC-MS.
(§2) Animals. Male NIH Swiss mice (22-30 g) served as subjects, and all procedures used in these studies were conducted in accordance with the University of California, Davis, Institutional Animal Care and Use Committee the Animal Care and Use policies in strict compliance with the Guide for the Care and Use of Laboratory Animals of the National Research Council (National Academy Press, Washington, D.C.; on the internet at nap.edu/readingroom/books/labrats/).
(§3) Test Substances and Drug Administration. Allopregnanolone (3α-hydroxy-5α-pregnan-20-one; 5α,3α-P) was synthesized by a SAFC Pharma Inc, Madison, Wis., USA and Captisol (sulfobutylether-beta-cyclodextrin sodium salt) was provided by Ligand Pharmaceuticals, Inc. La Jolla, Calif., USA. Solutions of 5α,3α-P were made in 6% (0.5 and 1.5 mg/ml) or 24% ([…]) sulfobutylether-β-cyclodextrin sodium salt (Captisol®) in 0.9% saline. The volumes used for all injections were 10-20 ml/kg of body weight. In order to establish time courses for protection by 5α,3α-P in the 6-Hz electrical-stimulation (32 mA, 3 s) model, 5α,3α-P (0.5-6 mg/kg) was administered intravenously (i.v.), intramuscularly (i.m.), subcutaneously (s.c.) or orally (p.o.) before electrical stimulation. In the PTZ seizure test, 5α,3α-P or vehicle were administered i.v. or i.m. 1, 2 or 30 min before PTZ.
6-Hz Seizure Test (Kaminski, et al., Epilepsia (2004) 45:1-4): 3-s corneal stimulation (200-μs duration, 32-mA monopolar rectangular pulses at 6 Hz) was delivered by a constant-current device (ECT Unit 5780; Ugo Basile, Comerio, Italy). […] The experimental end point was protection against the seizure: an animal was considered to be protected if it resumed its normal exploratory behavior within 10 s of stimulation.

[2] = tested on: PTZ (80 mg/kg, i.p.) seizures; assay: Pentylenetetrazol (PTZ) seizure test; assay type: in vivo, mouse; conditions: mice
Experimental: as §1, §2, §3
The time of onset of myoclonic jerks, clonus and tonic extension was recorded.
Data Analysis. Results are expressed as mean±S.E.M.; the significance of the difference in the responses of treatment groups with respect to control is based on one-way analysis of variance (ANOVA) followed by specific post hoc comparisons using Dunnett's test. Differences were considered statistically significant when the probability of error was less than 0.05 (p<0.05).

[3] = Plasma allopregnanolone after single i.v. injection (LC-MS); assay type: in vivo, rat; conditions: rats
Experimental: FIG. 10 illustrates a Time—concentration profile for plasma allopregnanolone (5α,3α-P) after single i.v. injection in rats. Rats bearing indwelling jugular catheters received single i.v. injection of 5α,3α-P or vehicle and serial blood samples were withdrawn at 1, 2, 10,15, 30, 60 and 120 min after injection. Plasma was assayed for 5α,3α-P by LC-MS. Each point represents at least 4 animals.
as §1
Surgery and Blood Collection. Male rats were implanted with indwelling jugular catheters as described (Baumann, et al., J Neurosci. (1998) 18: 9069-77). Animals were allowed to recover for at least one week. Experiments were carried out while the animal resided in its home cage. Rats received i.v. injection of vehicle or 5α,3α-P and serial blood samples were withdrawn into chilled tubes at 1, 2, 10,15, 30, 60 and 120 min after i.v. injection. 5α,3α-P and D4-5α,3α-P (internal standard) were extracted with SPE method from rat's plasma. The extracted 5α,3α-P and D4-5α,3α-P were quantified with ultra-performance liquid chromatography (UPLC)/Atmospheric-pressure chemical ionization (APCI)/tandem mass spectrometry (MS/MS).

[4] = 0.5 mg/kg i.v. 1 min before PTZ
[5] = i.v. bolus, 0.5 and 1.0 mg/kg pooled

Structure (SMILES): CC(=O)[C@H]1CC[C@H]2[C@@H]3CC[C@H]4C[C@H](O)CC[C@]4(C)[C@H]3CC[C@]12C [5α,3α-P, 3α-hydroxy-5α-pregnan-20-one]
- duration of protective activity in the 6 Hz test ([1]; i.m. 3 mg/kg): < 2 h
- onset of protective activity in the 6 Hz test ([1]; i.m. 3 mg/kg): ≤ 2 min
- protective activity in the 6 Hz test at 30 min ([1]; i.v. 1.5 mg/kg, 30 min after infusion): inactive
- time after injection with protective activity in the 6 Hz test ([1]; i.v. infusion 1.5 mg/kg): 1 to 15 min
- bioavailability after oral administration ([1]; p.o. in the 6-Hz model, inferred from time course): Low bioavailability
- delay of seizure onset in the PTZ model ([2]; 0.1 mg/kg i.v., all pretreatment times (1, 2 and 30 min)): failed to significantly delay seizure onset
- animals protected from tonic seizures ([2]; 0.25 mg/kg i.m. 2 min before PTZ): 0%
- animals protected from tonic seizures ([2]; 0.5 mg/kg i.m. 2 min before PTZ): 50%
- animals in which tonic seizures and mortality were prevented [2, 4]: 62.5%
- delay for myoclonic jerks and clonic seizures [2, 4]: marked delay
- animals in which tonic seizures were prevented ([2]; 0.5 mg/kg i.v. 2 min before PTZ): 25%
- animals protected from tonic seizures ([2]; 1.5 mg/kg i.m. 2 min before PTZ): 100%
- protection against tonic seizures ([2]; 1.5 mg/kg i.m. 30 min before PTZ): significant protection
- prevention of tonic seizures and mortality ([2]; 1.5 mg/kg i.v. 1 and 2 min before PTZ): completely prevented
- protection against tonic seizures ([2]; 1.5 mg/kg i.v. 30 min before PTZ): inactive
- mean peak plasma level (2 min) ([3]; i.v. bolus 0.5 mg/kg): 337 ng/mL
- mean peak plasma level (2 min) ([3]; i.v. bolus 1.0 mg/kg): 746 ng/mL
- pooled mean halftime, first component [3, 5]: 2 min
- pooled mean halftime, second component [3, 5]: 22 min
